The values below come from article PMC4258814, “Differences between murine arylamine N-acetyltransferase type 1 and human arylamine N-acetyltransferase type 2 defined by substrate specificity and inhibitor binding” (BMC Pharmacology & Toxicology, 2014).

By IC50 is commonly meant the midpoint of a concentration-inhibition curve.

Residue numbers refer to the chain shown, from its start. Marks after values point to notes of the source that are not given here.

For test [1], the target named is T1, (MOUSE)NAT2*1 (Mus musculus, UniProt P50295).
T1 construct: made in house
T1 sequence (P50295 1-290): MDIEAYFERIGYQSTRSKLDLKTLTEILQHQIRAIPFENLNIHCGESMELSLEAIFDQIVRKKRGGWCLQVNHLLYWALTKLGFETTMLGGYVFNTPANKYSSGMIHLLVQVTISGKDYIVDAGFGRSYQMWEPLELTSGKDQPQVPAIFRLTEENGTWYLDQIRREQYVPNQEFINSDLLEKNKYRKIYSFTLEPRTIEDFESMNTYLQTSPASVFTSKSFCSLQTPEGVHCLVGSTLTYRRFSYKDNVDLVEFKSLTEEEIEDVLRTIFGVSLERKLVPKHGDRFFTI
More on the design: method as in PMID 23940600, PMID 20170182. The following applies: in presence of (MOUSE)NAT2*1; ref [25], [24]; cited from earlier work.

Test [2] relates to (MESAU)NAT2*1. More on the design: method as in PMID 24758871. Conditions: read-out: IC50 with naphthoquinone 1, AcCoA 400 μM, substrate 4ABA, ref [26]; cited from earlier work.
The target in test [3] is T2, (MOUSE)NAT2_R127L (Mus musculus, UniProt P50295, R127L).
T2 construct: made in house
T2 sequence (P50295 1-290 R127L): T1 sequence (P50295 1-290) with R127L
The arrangement: method as in PMID 23940600. Conditions: in presence of (MOUSE)NAT2_R127L; ref [25]; cited from earlier work.

In test [4] the target is T3, (MOUSE)NAT2_R127G (Mus musculus, UniProt P50295, R127G).
T3 construct: made in house
T3 sequence (P50295 1-290 R127G): T1 sequence (P50295 1-290) with R127G
The arrangement: method as in PMID 23940600. The following applies: in presence of (MOUSE)NAT2_R127G; ref [25]; cited from earlier work.

The target of test [5] is T4, (MOUSE)NAT2_F125S (Mus musculus, UniProt P50295, F125S).
T4 construct: His tag (only implied by Ni-NTA purification) (cleaved yes); made in house; host or cells: E. coli Rosetta(DE3)pLysS
T4 sequence (P50295 1-290 F125S): T1 sequence (P50295 1-290) with F125S
As to the kind of experiment: Inhibition of NAT activity (AcCoA hydrolysis rate). Conditions: AcCoA 400 μM, substrate 5AS, 5% DMSO. Format: biochemical. From the text: (§1) The final concentration of dimethyl sulphoxide (DMSO) in reaction mixes was 5% (v/v). IC50 values were estimated using a dose–response-based regression model in Kyplot® software. Curves were fitted by least squares analysis with confidence limits of 95%.

In test [6] the target is T5, (HUMAN)NAT2*4 (Homo sapiens, UniProt P11245).
T5 construct: made in house
T5 sequence (P11245 1-290): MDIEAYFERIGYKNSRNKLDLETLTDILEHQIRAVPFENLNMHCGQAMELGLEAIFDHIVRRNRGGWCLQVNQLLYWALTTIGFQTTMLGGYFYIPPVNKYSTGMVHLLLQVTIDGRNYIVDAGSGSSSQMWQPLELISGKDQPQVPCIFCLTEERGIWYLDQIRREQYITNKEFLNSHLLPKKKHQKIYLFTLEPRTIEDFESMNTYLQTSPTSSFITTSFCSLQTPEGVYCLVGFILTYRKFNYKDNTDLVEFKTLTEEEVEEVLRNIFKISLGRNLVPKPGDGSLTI
As to the kind of experiment: Inhibition of NAT activity (AcCoA hydrolysis rate). In kind it is biochemical. The following applies: AcCoA 400 μM, substrate 2-aminofluorene, 5% DMSO.
Text: as §1

Test [7] concerns the target T6, (MOUSE)NAT1*1 (Mus musculus, UniProt P50294).
T6 construct: The open reading frame of (MOUSE)Nat1*1 [32] was subcloned; hexa-His (N, cleaved yes); made in house; host or cells: Escherichia coli BL21(DE3)CodonPlus-RIL
T6 sequence (P50294 1-290): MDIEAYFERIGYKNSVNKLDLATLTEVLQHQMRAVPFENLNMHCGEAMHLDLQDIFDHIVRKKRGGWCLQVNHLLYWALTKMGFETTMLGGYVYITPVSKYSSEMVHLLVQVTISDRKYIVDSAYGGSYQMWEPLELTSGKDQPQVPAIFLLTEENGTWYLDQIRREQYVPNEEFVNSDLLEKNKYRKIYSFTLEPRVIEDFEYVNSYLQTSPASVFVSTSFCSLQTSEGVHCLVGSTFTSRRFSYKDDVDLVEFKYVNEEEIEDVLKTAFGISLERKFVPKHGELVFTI
In words: Inhibition of NAT activity (AcCoA hydrolysis rate). Format: biochemical. Conditions: AcCoA 400 μM, substrate 5AS, 5% DMSO.
Text: as §1

Test [8] deals with T6, (MOUSE)NAT1*1. More on the design: method as in PMID 20170182. Conditions: in presence of (MOUSE)NAT1*1; ref [24]; cited from earlier work.
Test [9] has as its target T5, (HUMAN)NAT2*4. The arrangement: method as in PMID 23940600. The following applies: in presence of (HUMAN)NAT2*4; ref [25]; cited from earlier work.
Test [10] deals with (HUMAN)NAT1*4. More on the design: method as in PMID 23940600. The following applies: read-out: IC50 with naphthoquinone 1, AcCoA 400 μM, substrate 4ABA, ref [25]; cited from earlier work.
For test [11], the target named is T1, (MOUSE)NAT2*1. More on the design: method as in PMID 23940600, PMID 20170182. The following applies: read-out: IC50 with naphthoquinone 1, AcCoA 400 μM, substrate 4ABA, ref [25], [24]; cited from earlier work.

For `Cc1cc(C)cc(NC2=C(NS(=O)(=O)c3ccccc3)C(=O)c3ccccc3C2=O)c1` [naphthoquinone 1, N-(3-(3,5-dimethylphenylamino)-1,4-dioxo-1,4-dihydronaphthalen-2-yl)benzenesulphonamide], the “λ max of naphthoquinone 1” value in test [1] is 625^a,b nm; in test [3], 498^a nm; in test [4], 498^a nm; in test [8], 498^b nm; in [9] it was 498^a nm. Besides, the IC50 in test [2] was 89 µM; in test [5] it was 68.7 µM; in test [6], above 100 µM; in test [7], 130 µM; in test [10], 5.3 µM; in test [11] it was 1.3 µM.
